Assay results as given in patent US5770603A, “Quinazoline derivatives” (Zeneca Limited, priority 1996, dated 1998).
Values joined by “and” are separate entries in the source; they are usually repeats but may differ in a detail not shown here. Identical values can stand only once.

Columns and labels:
[1] = tested on: EGF receptor tyrosine kinase; conditions: Fry et al., Science, 1994, 265, 1093; cited from earlier work
[2] = tested on: human naso-pharyngeal cancer cell line KB; assay: Test (b): in vitro inhibition of EGF-stimulated growth of the human naso-pharyngeal cancer cell line KB; format: cell-based; conditions: 72 h, EGF 10 ng/ml, 3 days incubation, MTT, example values stated as approximate
Method: (b) An in vitro assay which determines the ability of a test compound to inhibit the EGF-stimulated growth of the human naso-pharyngeal cancer cell line KB.
Cell growth was determined after incubation for 3 days by the extent of metabolism of MTT tetrazolium dye to furnish a bluish colour. Cell growth was then determined in the presence of EGF (10 ng/ml) or in the presence of EGF (10 ng/ml) and a test compound at a range of concentrations. An lC50 value could then be calculated.

[3] = target: T1, EGF receptor tyrosine kinase (Homo sapiens, UniProt P00533); assay: Test (a): in vitro inhibition of the enzyme EGF receptor tyrosine kinase (partially purified from A-431 cells); format: biochemical; conditions: example values stated as approximate
T1 construct: Receptor tyrosine kinase was obtained in partially purified form from A-431 cells; endogenous in cells; host or cells: A-431 cells (human vulval carcinoma), Triton X-100 solubilised pelleted material
Method: (a) An in vitro assay which determines the ability of a test compound to inhibit the enzyme EGF receptor tyrosine kinase. Receptor tyrosine kinase was obtained in partially purified form from A-431 cells (derived from human vulval carcinoma) by the procedures described below which are related to those described by Carpenter et al, J. Biol. Chem., 1979, 254, 4884, Cohen et al, J. Biol. Chem., 1982, 257, 1523 and by Braun et al., J. Biol. Chem., 1984, 259, 2051.
A-431 cells were grown to confluence using Dulbecco's modified Eagle's medium (DMEM) containing 5% fetal calf serum (FCS). The obtained cells were homogenised in a hypotonic borate/EDTA buffer at pH 10.1. The homogenate was centrifuged at 400 g for 10 minutes at 0°-4° C. The supernatant was centrifuged at 25,000 g for 30 minutes at 0°-4° C. The pelleted material was suspended in 30 mM Hepes buffer at pH 7.4 containing 5% glycerol, 4 mM benzamidine and 1% Triton X-100, stirred for 1 hour at 0°-4° C., and recentrifuged at 100,000 g for 1 hour at 0°-4° C. The supernatant, containing solubilised receptor tyrosine kinase, was stored in liquid nitrogen.
For test purposes 40 μl of the enzyme solution so obtained was added to a mixture of 400 μl of a mixture of 150 mM Hepes buffer at pH 7.4, 500 μM sodium orthovanadate, 0.1% Triton X-100, 10% glycerol, 200 μl water, 80 μl of 25 mM DTT and 80 μl of a mixture of 12.5 mM manganese chloride, 125 mM magnesium chloride and distilled water. There was thus obtained the test enzyme solution.
Equal volumes of this solution and a solution of epidermal growth factor (EGF; 20 μg/ml) were mixed.
[y-^32 P]ATP (3000 Ci/mM, 250 μCi) was diluted to a volume of 2 ml by the addition of a solution of ATP (100 μM) in distilled water. An equal volume of a 4 mg/ml solution of the peptide […]in a mixture of 40 mM Hepes buffer at pH 7.4, 0.1% Triton X-100 and 10% glycerol was added.
The test compound/EGF mixture solution (5 μl) was added to the test enzyme solution (10 μl) and the mixture was incubated at 0°-4° C. for 30 minutes. The ATP/peptide mixture (10 μl) was added and the mixture was incubated at 25° C. for 10 minutes. The phosphorylation reaction was terminated by the addition of 5% trichloroacetic acid (40 μl) and bovine serum albumin (BSA; 1 mg/ml, 5 μl). The mixture was allowed to stand at 4° C. for 30 minutes and then centrifuged. An aliquot (40 μl) of the supernatant was placed onto a strip of Whatman p 81 phosphocellulose paper. The strip was washed in 75 mM phosphoric acid (4×10 ml) and blotted dry. Radioactivity present in the filter paper was measured using a liquid scintillation counter (Sequence A). The reaction sequence was repeated in the absence of the EGF (Sequence B) and again in the absence of the test compound (Sequence C).
Receptor tyrosine kinase inhibition was calculated as follows: [formula]

[4] = tested on: xenografts of the human vulval epidermoid carcinoma cell line A-431; assay: Test (c): in-vivo inhibition of growth of A-431 xenografts in athymic nude mice; parameters: species or system human (xenograft in athymic nude mice); conditions: Mus musculus, daily dosing, usually oral, tumour volume inhibition relative to untreated controls
Method: (c) An in-vivo assay in a group of athymic nude mice (strain ONU:Alpk) which determines the ability of a test compound (usually administered orally as a ball-milled suspension in 0.5% polysorbate) to inhibit the growth of xenografts of the human vulval epidermoid carcinoma cell line A-431. A-431 cells were maintained in culture in DMEM supplemented with 5% FCS nd 2 mM glutamine. Freshly cultured cells were harvested by trypsinization and injected subcutaneously (10 million cells/0.1 ml/mouse) into both flanks of a number of donor nude mice. When sufficient tumour material was available (after approximately 9 to 14 days), fragments of tumour tissue were transplanted in the flanks of recipient nude mice (test day 0). […] In some studies the dosing of the test compound was continued beyond test day 19, for example to test day 26. In each case, on the following test day the animals were killed and the final tumour volume was calculated from measurements of the length and width of the tumours. Results were calculated as a percentage inhibition of tumour volume relative to untreated controls.

[5] = tested on: carcinoma which does not express EGF receptor tyrosine kinase; conditions: carcinoma not expressing EGF receptor tyrosine kinase; Toi et al., 1990; cited from earlier work
[6] = tested on: transplanted human mammary carcinoma which expresses EGF receptor tyrosine kinase; conditions: athymic nude mice; EGF receptor tyrosine kinase expressing; Toi et al., 1990; cited from earlier work

T1 sequence (P00533 25-1210): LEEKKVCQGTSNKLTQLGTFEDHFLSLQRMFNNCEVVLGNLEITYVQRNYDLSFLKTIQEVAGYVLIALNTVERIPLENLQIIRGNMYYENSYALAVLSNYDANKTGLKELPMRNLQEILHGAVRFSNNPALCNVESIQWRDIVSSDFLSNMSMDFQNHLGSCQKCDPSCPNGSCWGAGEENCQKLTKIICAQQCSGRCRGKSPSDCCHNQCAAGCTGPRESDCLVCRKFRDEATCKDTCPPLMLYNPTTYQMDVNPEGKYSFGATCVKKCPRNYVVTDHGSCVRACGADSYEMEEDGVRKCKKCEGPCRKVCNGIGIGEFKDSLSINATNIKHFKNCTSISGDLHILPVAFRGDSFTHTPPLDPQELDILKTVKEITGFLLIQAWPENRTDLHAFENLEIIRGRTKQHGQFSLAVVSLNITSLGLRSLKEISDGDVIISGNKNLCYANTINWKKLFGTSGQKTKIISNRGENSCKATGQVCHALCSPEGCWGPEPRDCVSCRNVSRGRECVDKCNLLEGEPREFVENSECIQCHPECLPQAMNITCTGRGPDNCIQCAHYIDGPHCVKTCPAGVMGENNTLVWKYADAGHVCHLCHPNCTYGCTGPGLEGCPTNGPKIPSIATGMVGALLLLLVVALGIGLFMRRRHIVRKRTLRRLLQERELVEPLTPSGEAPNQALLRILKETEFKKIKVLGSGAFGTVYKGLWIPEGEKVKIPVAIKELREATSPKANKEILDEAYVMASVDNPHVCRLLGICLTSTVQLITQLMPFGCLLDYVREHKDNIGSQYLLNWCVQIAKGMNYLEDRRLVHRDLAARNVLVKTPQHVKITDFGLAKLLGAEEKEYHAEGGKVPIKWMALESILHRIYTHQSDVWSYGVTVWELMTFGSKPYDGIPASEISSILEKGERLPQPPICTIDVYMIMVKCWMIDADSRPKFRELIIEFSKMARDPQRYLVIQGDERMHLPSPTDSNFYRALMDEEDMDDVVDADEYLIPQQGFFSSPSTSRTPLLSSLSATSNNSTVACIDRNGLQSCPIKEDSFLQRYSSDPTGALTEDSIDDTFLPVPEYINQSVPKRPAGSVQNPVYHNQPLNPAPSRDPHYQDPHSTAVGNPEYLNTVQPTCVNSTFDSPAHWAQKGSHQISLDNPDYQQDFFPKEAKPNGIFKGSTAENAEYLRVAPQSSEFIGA

| Structure (SMILES) | IC50 [2] | IC50 [3] | also measured |
| --- | --- | --- | --- |
| COc1cc2ncnc(Nc3cccc(Br)c3)c2cc1OC [4-(3'-bromoanilino)-6,7-dimethoxyquinazoline] |  |  | inhibitor of EGF receptor tyrosine kinase (in words) [1]: highly potent inhibitor |
| COc1cc2ncnc(Nc3ccc(F)c(Cl)c3)c2cc1OCC1OCCO1 [Example 2, 4-(3'-chloro-4'-fluoroanilino)-6-(1,3-dioxolan-2-ylmethoxy)-7-methoxyquinazoline] | 200 nM | 10 nM |  |
| COc1cc2ncnc(Nc3ccc(F)c(Cl)c3)c2cc1OCCC1OCCO1 [Example 3, 4-(3'-chloro-4'-fluoroanilino)-6-[2-(1,3-dioxolan-2-yl)ethoxy]-7-methoxyquinazoline] | 330 nM | 10 nM | ED50 [4]: ~50 mg/kg |
| COc1cc2ncnc(Nc3ccc(F)c(Cl)c3)c2cc1OCCCC1OCCO1 [Example 4, 4-(3'-chloro-4'-fluoroanilino)-6-[3-(1,3-dioxolan-2-yl)propoxy]-7-methoxyquinazoline] | 140 nM | 40 nM |  |
| COc1cc2ncnc(Nc3ccc(F)c(Cl)c3)c2cc1OCC1COCO1 (stereo not shown) [Example 5, 4-(3'-chloro-4'-fluoroanilino)-6-(1,3-dioxolan-4-ylmethoxy)-7-methoxyquinazoline] | 140 nM | 15 nM |  |
| COc1cc2ncnc(Nc3ccc(F)c(Cl)c3)c2cc1OCCC1OCCCO1 [Example 8, 4-(3'-chloro-4'-fluoroanilino)-6-[2-(1,3-dioxan-2-yl)ethoxy]-7-methoxyquinazoline] | 40 nM | 5 nM |  |
| COc1cc2ncnc(Nc3ccc(F)c(Cl)c3)c2cc1OCC1(C)COC1 [Example 10, 4-(3'-chloro-4'-fluoroanilino)-7-methoxy-6-(3-methyloxetan-3-ylmethoxy)quinazoline] | 65 nM | 10 nM and 34 nM |  |
| O=CN/C=C/c1cc(O)ccc1O [erbstatin] |  |  | growth of another carcinoma (in words) [5]: without effect on the growth; growth of transplanted human mammary carcinoma (in words) [6]: specifically attenuates the growth |
